The record followed here is the NIST ThermoML archive (doi:10.1016/j.jct.2015.07.046).

The data set can be described thus: activity coefficient (dimensionless); of the first substance listed, at infinite dilution; xn = mol fraction of the nth substance listed. The note with it: 101.3 kPa, Liquid, Chromatography, x1 = 0.

± gives the expanded uncertainty stated by the source.

On to `CC(C)CC(C)(C)C` [2,2,4-trimethylpentane] + CCn1cc[n+](C)c1.COP(=O)([O-])OC, for which the activity coefficient reads like this: (313.15 K) 183 ± 19; (323.15 K) 170 ± 18; (333.15 K) 158 ± 17; (343.15 K) 143 ± 15; (353.15 K) 132 ± 14; (363.15 K) 119 ± 13.

On to `Cc1cccc(C)c1` [1,3-dimethylbenzene] + COP(=O)([O-])OC.Cn1cc[n+](C)c1, for which the activity coefficient by setting is: (313.15 K) 14.6 ± 1.5; (323.15 K) 14.4 ± 1.5; (333.15 K) 14.2 ± 1.5; (343.15 K) 14.2 ± 1.5; (353.15 K) 14.1 ± 1.5; (363.15 K) 13.9 ± 1.5.

As for `Cc1ccccc1` [toluene] + COP(=O)([O-])OC.Cn1cc[n+](C)c1, the activity coefficient (313.15 K) came out at 7.57 ± 0.8; the activity coefficient (323.15 K) was determined as 7.54 ± 0.79; the activity coefficient (333.15 K) stood at 7.51 ± 0.79; the activity coefficient (343.15 K) was 7.48 ± 0.79; the activity coefficient (353.15 K) was determined as 7.47 ± 0.79; the activity coefficient (363.15 K) worked out at 7.45 ± 0.78.

In the case of `c1ccccc1` [benzene] + COP(=O)([O-])OC.Cn1cc[n+](C)c1, the activity coefficient (313.15 K) turned out to be 3.64 ± 0.38; the activity coefficient (323.15 K) was 3.62 ± 0.38; the activity coefficient (333.15 K) was 3.61 ± 0.38; the activity coefficient (343.15 K) was 3.59 ± 0.38; the activity coefficient (353.15 K) turned out to be 3.57 ± 0.38; the activity coefficient (363.15 K) is 3.56 ± 0.37.
